# According to US20260216247A1, “Composition For Treatment Or Prevention Of Hair Loss Comprising Stem Cell-Derived Exosomes And Preparation Method Therefor” (BREXOGEN INC., priority 2023, published 2026):
# What was measured:
# [1] = system: testosterone-treated C57BL/6 mice; test: Hair regrowth in testosterone-treated animal model; format: in vivo; conditions: Day 27; topical testosterone daily; 1 mg/kg Finasteride subcutaneous every other day; testosterone-untreated = 100
# Experimental: To evaluate whether the composition of the present disclosure promotes hair regrowth, BxC-HAe isolated in Example 2 was administered to a testosterone-treated animal model, and changes in body weight and photographic observations were compared.
# Specifically, six-week-old C57BL/6 mice were acclimated for two weeks under conditions of 25° C. and 50% humidity with ad libitum access to food and tap water. Eight-week-old mice were then used for the experiment.
# On Day 0, initial depilation was performed using a hair clipper, followed by the application of Niklin (II-dong Pharmaceutical) for 90 seconds for secondary depilation. The area was then rinsed three times with lukewarm water.
# In the testosterone-treated group, starting on Day 1, 100 μL of 0.5% (w/w) testosterone dissolved in 50% ethanol was topically applied daily to the depilated dorsal region of each mouse.
# Starting from the point when hair regrowth began in the testosterone-untreated group, body weight was measured twice weekly, and photographs were taken once weekly.
# Specifically, hair regrowth area and depilated area were measured using ImageJ software, and the ratio of hair regrowth area to depilated area was calculated and analyzed statistically.
# The experiment was conducted until Day 27, the point at which hair regrowth was completed in the testosterone-untreated group. […]
# [2] = system: testosterone-treated C57BL/6 mice; test: Ratio of anagen-phase hair follicles in skin tissue (H&E), testosterone-treated animal model; format: in vivo; conditions: Anagen/(Catagen+Telogen); dorsal skin after 27-day experiment; 1 mg/kg Finasteride subcutaneous
# Experimental: To determine whether the composition of the present disclosure inhibits the reduction of hair follicles, the ratio of anagen-phase hair follicles was measured in a testosterone-treated animal model following administration of BxC-HAe isolated in Example 2. Specifically, dorsal skin tissues from each mouse subjected to the 27-day experiment described in Example 8 were collected, embedded in paraffin blocks, and sectioned at a thickness of 5 μm. The tissue sections were then stained using H&E. Subsequently, for each group, randomly selected hair follicles from the dorsal skin of five mice were classified by morphology into anagen (growth phase), catagen (regression phase), and telogen (resting phase). The ratio of anagen hair follicles was calculated using the formula: Anagen/(Catagen+Telogen). The results were presented in FIGS. 20 and 21, and Table 18.
# β-catenin = β-catenin immunofluorescence in skin tissue, testosterone-treated animal model; format: in vivo, C57BL/6 mice; conditions: dorsal skin after 27-day experiment; 1 mg/kg Finasteride; testosterone-untreated = 1
# Experimental: To determine whether the composition of the present disclosure modulates the expression of hair loss and regrowth-related factors, a testosterone-treated animal model was administered BxC-HAe isolated in Example 2, and the fluorescence intensity of cells stained with antibodies against androgen receptor (AR) and β-catenin was measured and compared.
# Specifically, dorsal skin tissues from each mouse subjected to the 27-day experiment (described in Example 8) were harvested, embedded in paraffin blocks, and sectioned at a thickness of 5 μm, followed by immunofluorescent staining.
# The primary antibodies used were rabbit anti-β-catenin (Cell Signaling #9562) and mouse anti-AR (Santa Cruz, sc-7305). The fluorophore-conjugated secondary antibodies were goat anti-rabbit IgG conjugated with Alexa Fluor 488 (Abcam, ab150077) and goat anti-mouse IgG conjugated with Cyanine5 (Invitrogen, a10524).
# After completion of the antibody reactions, DAPI staining was performed, and fluorescence patterns were analyzed using a Nikon ECLIPSE Ti2 fluorescence microscope and NIS-Elements software. The results are shown in FIGS. 22-24, and in Tables 19 and 20.
structure (smiles),measurement,setting,value
CC(C)(C)NC(=O)[C@H]1CC[C@H]2[C@@H]3CC[C@H]4NC(=O)C=C[C@]4(C)[C@H]3CC[C@]12C [Finasteride],Hair growth area (%),[1],68.1%
same,Percentage of hair follicles in growth phase (%),[2],1.29%
same,Fluorescence intensity (β-catenin),β-catenin,1.05
